# Measured values from patent US20110045998A1, “CANDIDATE GENES AND BLOOD BIOMARKERS FOR BIPOLAR MOOD DISORDER, ALCOHOLISM AND STRESS DISORDER” (priority 2007, published 2011).
# “Also recorded” adds a separate entry of the source. Like-named read-outs stand apart in the source and are kept apart here.
# What was measured:
# [1] = system: brain gene expression (PFC, AMY, CP, VT); design: key: I—Increased in expression; D—decreased in expression; details: cited from earlier work
# DBP KO NST mice = assay: Locomotor pattern testing (open field video tracking) after acute methamphetamine, non-stressed mice; format: in vivo; details: methamphetamine 10 mg/kg intra-peritoneal
# Protocol: Drugs: Mice were administered saline, valproate (200 mg/kg), or methamphetamine (10 mg/kg) acutely by intra-peritoneal injection.
# Locomotor Pattern Testing: A SMART II Video Tracker (VT) system (San Diego Instruments, San Diego, Calif.) was used to track movement of mice immediately after drug administration and again 24 hours later. After injection, mice were placed in the lower-right-hand corner of one of four adjacent, 41×41×34-cm^3 enclosures. Mice had no physical contact with other mice during testing. Each enclosure has nine pre-defined areas, i.e. center area, corner area, and wall area. The movements of the mice were recorded for 30 minutes.
# Measures of overall locomotor activity were obtained and represented by the total distance traveled within and between each of the nine regions of the enclosure. Two categories of behavior were obtained. First, the amount of locomotor activity was assessed by using the total distance traveled in the open field in a 30-minute interval. Second, the spatial scaling exponent, d, or spatial D, was obtained. Spatial D is a quantified measure of the geometric patterns of locomotor activity. Briefly, spatial d is a measure of the non-linear nature of an animal's locomotor movement and is quantified on a scale from 1 to 2; with d=1 indicating extremely linear movement and d=2 representing highly non-linear locomotor movement.
# Data and Statistical Analysis: Two-way analyses of variance (ANOVAs) were used to compare total distance traveled and spatial d. Genotype and/or drug treatment were between-subjects variables, and time was a within-subjects variable. All computations were conducted with SPSS statistical software (SPSS Inc., Chicago, Ill.).
# Non-Stress (NST) vs. Stress (ST) Experiments: For the Non-Stress (NST) experiments, mice were group housed. For the Stress (ST) experiments, mice were subjected to a chronic stress paradigm consisting of isolation (single housing) for one month, with an acute stressor (behavioral challenge tests) in Week 3. […] At four weeks, mice were injected with either saline or methamphetamine.
# DBP KO mice = assay: Sleep deprivation experiments with valproate pre-treatment, locomotor activity by video tracking; format: in vivo
# Protocol: To further characterize the behavioral phenotype of the DBP KO mice, group-housed (NST) male DBP KO mice were subjected to sleep deprivation for a 24 hour period. Following sleep deprivation, sleep-deprived (SD) mice and control non sleep-deprived (NSD) mice were monitored with video-tracking software. […] In a second sleep deprivation experiment, mice were pre-treated with an IP valproate injection (200 mg/kg) immediately prior to the sleep deprivation experiment. If the change in locomotor behavior that accompanies sleep-deprivation in the SD animals is representative of an endophenotype that is associated with bipolar disorder, then administration of the mood stabilizing agent valproate should counteract the behavioral response of DBP KO mice to sleep deprivation. […] Sleep Deprivation Experiments: Sleep deprivation studies consisted of light cycle changes, with no handling of animals involved, to avoid inducing non-sleep related handling stress confounds. Male DBP KO mice were used in the sleep deprivation experiments as follows: sleep deprived (SD) animals were removed from the standard housing room with a 12 hour off/12 hour on (reverse) light cycle and kept in a dark room overnight the night before the experiment. Non-sleep deprived (NSD) animals were kept in the housing room with the standard light cycle the night before the experiment to allow for a normal night's sleep. […]
compound,measurement,setting,value
CN[C@@H](C)Cc1ccccc1 [methamphetamine],"Cdk5r1 expression, Bipolar CFG (Ogden et al. 2004)","[1]; AMY, Cat II",AMY Cat II-Meth(D) VPA(D)
same,"Ckmt1 expression, Bipolar CFG (Ogden et al. 2004)","[1]; AMY, Cat III",AMY Cat III-Meth(I) VPA(I)
same,"Sec24d expression, Bipolar CFG (Ogden et al. 2004)","[1]; AMY, Cat III",AMY Cat III-Meth(I)
same,"Gas5 expression, Bipolar CFG (Ogden et al. 2004)","[1]; AMY, Cat IV",AMY Cat IV-Meth(I)
same,"Gnb1 expression, Bipolar CFG (Ogden et al. 2004)","[1]; AMY, Cat IV",AMY Cat IV-Meth (I)
same,"Mef2a expression, Bipolar CFG (Ogden et al. 2004)","[1]; AMY, Cat IV",AMY Cat IV-Meth (D)
same,"Ttr expression, Bipolar CFG (Ogden et al. 2004)","[1]; CP, Cat IV",CP Cat IV-Meth(I)
same,"Gpr88 expression, Bipolar CFG (Ogden et al. 2004)","[1]; PFC, Cat I",PFC Cat I-Meth(I) VPA (I)
same,"Mef2c expression, Bipolar CFG (Ogden et al. 2004)","[1]; PFC, Cat I",D
same,"Penk1 expression, Bipolar CFG (Ogden et al. 2004)","[1]; PFC, Cat I",PFC Cat I-Meth(I) VPA(I)
same,"Ppp1r1b/Darp32 expression, Bipolar CFG (Ogden et al. 2004)","[1]; PFC, Cat I",PFC Cat I-Meth(I) VPA(I)
same,"Tac1 expression, Bipolar CFG (Ogden et al. 2004)","[1]; PFC, Cat I",PFC Cat I-Meth(I) VPA(I)
same,"Alcam expression, Bipolar CFG (Ogden et al. 2004)","[1]; PFC, Cat III",PFC Cat III-Meth(D)
same,"Ddx6 expression, Bipolar CFG (Ogden et al. 2004)","[1]; PFC, Cat III",PFC Cat III-Meth (D)
same,"Gng7 expression, Bipolar CFG (Ogden et al. 2004)","[1]; PFC, Cat III",PFC Cat III-Meth(I) VPA(I)
same,"Scn4b expression, Bipolar CFG (Ogden et al. 2004)","[1]; PFC, Cat III",PFC Cat III-Meth(I) VPA(I)
same,"Actb expression, Bipolar CFG (Ogden et al. 2004)","[1]; PFC, Cat IV",PFC Cat IV-Meth (D)
same,"Arhgap5 expression, Bipolar CFG (Ogden et al. 2004)","[1]; PFC, Cat IV",PFC Cat IV-Meth (I)
same,"Gabra4 expression, Bipolar CFG (Ogden et al. 2004)","[1]; PFC, Cat IV",PFC Cat IV-METH (I)
same,"Gsk3b expression, Bipolar CFG (Ogden et al. 2004)","[1]; PFC, Cat IV",PFC Cat IV-METH (D)
same,"Hectd1 expression, Bipolar CFG (Ogden et al. 2004)","[1]; PFC, Cat IV",PFC Cat IV-Meth(D)
same,"Peg3 expression, Bipolar CFG (Ogden et al. 2004)","[1]; PFC, Cat IV",PFC Cat IV-Meth(D)
same,"Pten expression, Bipolar CFG (Ogden et al. 2004)","[1]; PFC, Cat IV",PFC Cat IV-Meth(D)
same,"Tmod2 expression, Bipolar CFG (Ogden et al. 2004)","[1]; PFC, Cat IV",PFC Cat IV-METH (D)
same,"Alcam expression, Bipolar CFG (Ogden et al. 2004)","[1]; VT, Cat IV",VT Cat IV-Meth(D)
same,"Ddx6 expression, Bipolar CFG (Ogden et al. 2004)","[1]; VT, Cat IV",VT Cat IV-Meth (D)
same,"stereotypy, as measured by Spatial Deviance",DBP KO NST mice; DBP KO NST mice,reduction in stereotypy
same,Total Distance Traveled,"DBP KO NST mice; DBP KO NST mice, 30 minutes open field",reversed this decrease
same,"stereotypy, as measured by Spatial Deviance",DBP KO NST mice; WT mice,trend towards an increase in stereotypy
"CCCC(CCC)C(=O)O [valproate, valproic acid]","Cdk5r1 expression, Bipolar CFG (Ogden et al. 2004)","[1]; AMY, Cat II",AMY Cat II-Meth(D) VPA(D)
same,"Cacnb2 expression, Bipolar CFG (Ogden et al. 2004)","[1]; AMY, Cat III",AMY Cat III-VPA(D)
same,"Ckmt1 expression, Bipolar CFG (Ogden et al. 2004)","[1]; AMY, Cat III",AMY Cat III-Meth(I) VPA(I)
same,"Ids expression, Bipolar CFG (Ogden et al. 2004)","[1]; AMY, Cat III",AMY Cat III-VPA(D)
same,"Mef2c expression, Bipolar CFG (Ogden et al. 2004)","[1]; AMY, Cat III",AMY Cat III-VPA(D)
same,"Ptov1 expression, Bipolar CFG (Ogden et al. 2004)","[1]; AMY, Cat III",AMY Cat III-VPA(I)
same,"Actb expression, Bipolar CFG (Ogden et al. 2004)","[1]; AMY, Cat IV",AMY Cat IV-VPA (I)
same,"Alcam expression, Bipolar CFG (Ogden et al. 2004)","[1]; AMY, Cat IV",AMY Cat IV-VPA(D)
same,"Atp8a1 expression, Bipolar CFG (Ogden et al. 2004)","[1]; AMY, Cat IV",AMY Cat IV-VPA(D)
same,"Clasp2 expression, Bipolar CFG (Ogden et al. 2004)","[1]; AMY, Cat IV",AMY Cat IV-VPA(D)
same,"Peg3 expression, Bipolar CFG (Ogden et al. 2004)","[1]; AMY, Cat IV",AMY Cat IV-VPA(D)
same,"Ptpn5/Step expression, Bipolar CFG (Ogden et al. 2004)","[1]; AMY, Cat IV",AMY Cat IV-VPA (I)
same,"Sez6 expression, Bipolar CFG (Ogden et al. 2004)","[1]; AMY, Cat IV",AMY Cat IV-VPA(I)
same,"Timp2 expression, Bipolar CFG (Ogden et al. 2004)","[1]; AMY, Cat IV",AMY Cat IV-VPA (D)
same,"Cdk5r1 expression, Bipolar CFG (Ogden et al. 2004)","[1]; CP, Cat III",CP Cat III-VPA(I)
same,"Alcam expression, Bipolar CFG (Ogden et al. 2004)","[1]; CP, Cat IV",CP Cat IV-VPA(D)
same,"Cacnb2 expression, Bipolar CFG (Ogden et al. 2004)","[1]; CP, Cat IV",CP Cat IV-VPA(I)
same,"Gnb1 expression, Bipolar CFG (Ogden et al. 2004)","[1]; CP, Cat IV",CP Cat IV-VPA (D)
same,"Ids expression, Bipolar CFG (Ogden et al. 2004)","[1]; CP, Cat IV",CP Cat IV-VPA(I)
same,"Mef2a expression, Bipolar CFG (Ogden et al. 2004)","[1]; CP, Cat IV",CP Cat IV-VPA (I)
same,"Gsk3b expression, Bipolar CFG (Ogden et al. 2004)","[1]; CP, IV",CP IV-VPA (D)
same,"Gpr88 expression, Bipolar CFG (Ogden et al. 2004)","[1]; PFC, Cat I",PFC Cat I-Meth(I) VPA (I)
same,"Mef2c expression, Bipolar CFG (Ogden et al. 2004)","[1]; PFC, Cat I",I
same,"Penk1 expression, Bipolar CFG (Ogden et al. 2004)","[1]; PFC, Cat I",PFC Cat I-Meth(I) VPA(I)
same,"Ppp1r1b/Darp32 expression, Bipolar CFG (Ogden et al. 2004)","[1]; PFC, Cat I",PFC Cat I-Meth(I) VPA(I)
same,"Tac1 expression, Bipolar CFG (Ogden et al. 2004)","[1]; PFC, Cat I",PFC Cat I-Meth(I) VPA(I)
same,"Gng7 expression, Bipolar CFG (Ogden et al. 2004)","[1]; PFC, Cat III",PFC Cat III-Meth(I) VPA(I)
same,"Scn4b expression, Bipolar CFG (Ogden et al. 2004)","[1]; PFC, Cat III",PFC Cat III-Meth(I) VPA(I)
same,locomotion in NSD animals,"DBP KO mice; NSD DBP KO mice, valproate 200 mg/kg vs non-valproate treated",did not have any significant effect on locomotion
same,"total distance traveled, sleep-deprived (SD) vs non sleep-deprived (NSD)","DBP KO mice; male DBP KO mice, IP valproate 200 mg/kg prior to 24 hour sleep deprivation",increase in locomotion is prevented; also recorded: no significant difference in the locomotor behavior of SD and NSD animals
